Assay results published in patent US20210113540A1, “TREATMENT AGENT AND PHARMACEUTICAL COMPOSITION FOR GLIOMA” (NATIONAL UNIVERSITY CORPORATION HOKKAIDO UNIVERSITY, priority 2018, published 2021).
Where two headings read alike, the source gives them in different places.

How the values were obtained:
GICs (E6, E16) = experiment: Quantitative determination of metabolites by LC-MS/MS in GICs; assay type: cell-based, human; design: amounts of purine metabolites (ATP, GTP, dATP, dGTP): dose or concentration left out as unconfirmed; conditions: 24 hours
Experimental: Compound 8 was added to GICs (E6, E16) at […] and treated for 24 hours. Cells were washed with a 5% mannitol solution, 70% ice-cold methanol was added, and metabolites were extracted. […] In addition, the amount of orotic acid was decreased in E16 cells.

[1] = tested on: Glioma-initiating cell E6R; experiment: Cell growth test (MTT) on GICR strain E6R; assay type: cell-based; conditions: Homo sapiens, 72 h
Experimental: GICR strain: Cell growth test was performed using E6R (Stem Cells. 2016 August; 34(8):2016-25.).
(§1) Cell culture solutions were obtained by mixing a medium prepared by adding various compounds, bFGF (Peprotech, 100-18B) and EGF (Peprotech, 100-15) to DMEM/Ham's F-12 medium (SIGMA, D8062) and a medium prepared by adding FCS (Hyclone, SH30910.03) to DMEM medium (Nacalai tesque, 08458-45) to a concentration of 10% for use.
(§2) Each compound adjusted to a predetermined concentration was dispensed into a 96-well plate (Falcon, 353072) at 80 μL/well, and E6 cells and E6R cells were seeded on the 96-well plate at 1000 cells/80 μL/well. After 3 days, 10 μL of an MTT reagent (DOJINDO, 341-01823) was added, the cells were incubated at 37° C. for 3 hours, the culture solution was removed, and 100 μL of DMSO was added. The absorbance at 570 nm was measured using Bio-Rad iMark (Bio-Rad, 168-1130JA). The growth inhibition rate at each test compound concentration was calculated by the following formula using the absorbance as an index of the viable cell count.
(§3) The growth inhibition rate at each compound concentration was determined, and the 50% growth inhibition concentration GI50 (μmol/L)] was calculated using XLfit. Growth inhibition rate (%)=(Amount of luminescence from wells supplemented with test compound)/(Amount of luminescence from wells supplemented with DMSO)×100
(§4) GIC and GICR strain: Cell growth test was performed using E6, E6R, E16, and E16R (Stem Cells. 2016 August; 34(8): 2016-25.).

recombinant human DHODH = biological target: T1, recombinant human DHODH (Homo sapiens, UniProt Q02127); experiment: DHODH enzyme assay (DCIP quenching); assay type: biochemical; conditions: pH 8.0, DCIP absorbance 600 nm, 50 minutes; read-out: DHODH enzyme inhibition IC50
T1 construct: DHODH, 31-395aa, Human, His tag, E. coli, ATGP1615; His tag; purchased ATGen ATGP1615; host or cells: E. coli
Experimental: For DHODH enzyme assay, “Benjamin Bader, Wolfgang Knecht, Markus Fries, and Monika Löffler. Expression, Purification, and Characterization of Histidine-Tagged Rat and Human Flavoenzyme Dihydroorotate Dehydrogenase. Protein Expression and Purification, 1998, 13, 414-422” was referred to.
DHODH activity was evaluated using an enzyme assay system that couples with an assay in a blue-coloring dye 2,6-dichlorophenol indophenol (DCIP, MP BIOMEDICALS, MP150118) quenching assay. Purified recombinant human DHODH (DHODH, 31-395aa, Human, His tag, E. coli, ATGP1615) was purchased from ATGen. […] Enzyme activity was assessed by measuring the decrease in DCIP absorbance (600 nm) for 50 minutes using an Envision plate-reading spectrophotometer (PerkinElmer Co., Ltd.). […]
Enzyme reaction inhibition rate (%)=(Amount of luminescence from wells supplemented with test compound)/(Amount of luminescence from wells supplemented with DMSO)×100

[2] = tested on: Glioma-initiating cell E6; experiment: Cell proliferation test (MTT) on GIC strain E6; assay type: cell-based; conditions: Homo sapiens, 72 h, MTT after 3 days
Experimental: as §4, §1, §2, §3

[3] = tested on: Temozolomide-resistant E6 (E6R); experiment: Xenograft model, subcutaneous E6R in NOD/SCID mice; assay type: in vivo
Experimental: Temozolomide-resistant E6 (E6R, 1×10^6) was subcutaneously transplanted into NOD/SCID mice (n=6), and Compound 8 (1.0 mg/kg) was orally administered for 11 consecutive days after the long diameter and short diameter of tumor became 5 to 6 mm. […] The size of tumor was calculated as (long diameter)×(short diameter)^2/2. Tumors were excised from Compound 8 treated mice and control mice on Day 12 from the start of oral administration of Compound 8 and fixed with 4% paraformaldehyde, followed by preparation of frozen sections. As a result, tumor cell aggregates disappeared by treatment with Compound 8.

[4] = 1.0 mg/kg orally, tumors excised on Day 12

T1 sequence (Q02127 31-395): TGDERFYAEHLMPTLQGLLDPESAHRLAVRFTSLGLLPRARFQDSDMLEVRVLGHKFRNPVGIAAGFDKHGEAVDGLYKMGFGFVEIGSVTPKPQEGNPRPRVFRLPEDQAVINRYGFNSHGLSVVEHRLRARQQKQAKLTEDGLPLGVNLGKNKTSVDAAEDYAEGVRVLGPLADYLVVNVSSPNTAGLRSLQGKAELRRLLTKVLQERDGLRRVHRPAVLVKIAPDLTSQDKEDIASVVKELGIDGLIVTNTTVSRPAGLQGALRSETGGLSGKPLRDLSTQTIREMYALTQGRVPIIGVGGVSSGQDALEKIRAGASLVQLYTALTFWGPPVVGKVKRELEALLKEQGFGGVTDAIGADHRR

SMILES: O=C(O)c1cc(C2CC2)cnc1Nc1ccc2c(ccn2-c2ccccc2)c1 [Compound 8, 5-cyclopropyl-2-((1-phenyl-1H-indole-5-yl)amino)nicotinic acid]
- amounts of pyrimidine metabolites downstream of orotic acid (UMP, UDP, UTP, CMP, CDP, CTP, dCTP, dTTP) (GICs (E6, E16); 10 M): reduced
- amounts of purine metabolites (ATP, GTP, dATP, dGTP) (GICs (E6, E16)): remained unchanged
- GI50 ([1]; MTT after 3 days, read-out: ER6 GI50): 11.8 nM
- GI50 ([1]; class of ER6 GI50, MTT after 3 days, read-out: Evaluation): < 1000 nM
- IC50 (recombinant human DHODH): 8.96 nM
- GI50 ([2]; read-out: GI50 (nmol/L) of Glioma-initiating cell E6): < 7 nmol/L
- GI50 ([2]; read-out: GI50 class of Glioma-initiating cell E6): < 1000 nmol/L
- tumor growth (size of tumor) ([3]; 1.0 mg/kg orally for 11 consecutive days, FIG. 2): reduced tumor growth
- SOX2 in the mouse tumor tissue [3, 4]: disappearance of SOX2
- tumor cell aggregates in excised tumor sections [3, 4]: disappeared
